Laboratory results published in article PMC7796184, “Phytochemical Characterization, In Vitro Anti-Inflammatory, Anti-Diabetic, and Cytotoxic Activities of the Edible Aromatic Plant; Pulicaria jaubertii” (Molecules, 2021).
Values after ≈ are worked out from the molar mass of the structure shown. Each block holds one compound with its values, some of them ahead of it.

Key:
U937 human monocytes = assay: Histamine release assay (EIA kit) in PMA-treated U937 cells; assay type: cell-based; details: U-937, 20 nM Phorbol Myristate Acetate, 1 h, triplicate, read-out: Histamine release inhibition IC50
Experimental: In accordance with literature, extracts or standard diclofenac (7.81–1000 μg/mL) were added to U937 cells seeded in a 96-well plate in a concentration of 50,000 in presence or absence of 20 nM Phorbol Myristate Acetate. After 1 h, the treated and untreated cell cultures supernatants were collected and centrifuged at 10,000 rpm for 5 min at 4 °C. Then the samples were evaluated for released histamine by a commercially available EIA kit (SPI-Bio, Montigny le Bretonneux, France).

red blood cells (RBCs) = assay: Membrane stabilizing activity, hypotonic solution-induced hemolysis of RBCs; assay type: cell-based, rats; details: Erythrocyte, 10 min; rat RBCs, hypotonic solution pH 7.4, 10 min; triplicate; read-out: Membrane stabilization IC50 (inhibition of RBCs hemolysis)
Experimental: The method was conducted according to the literature. Erythrocyte suspension was prepared by withdrawing blood samples from rats with heparinized syringes through cardiac puncture. Then, phosphate buffer was used to wash blood samples three times with centrifugation after each washing at 3000 rpm for 10 min. […] Control samples were prepared by similar manner without extracts or indomethacin. Afterward, previous mixtures were withstanding for 10 min in room condition and subjected to 10 min centrifugation at 3000 rpm.

[1] = tested on: prostate carcinoma (PC-3) cell line; assay: cells; details: Homo sapiens, PC-3, read-out: Cytotoxicity IC50
Experimental: (§1) All cells were obtained from the American Type Culture Collection (ATCC, Rockville, MD, USA) and were cultured on RPMI 1640 medium supplemented with 10% inactivated fetal calf serum and 50 μg/mL gentamycin. The cells were maintained at 37 °C in a humidified atmosphere with 5% CO2 and were sub cultured two to three times a week. Cell viability percentage was calculated by the equation: Cell viability % = Ac/At × 100(5) where Ac = Absorbance obtained from of control cells, At = Absorbance obtained from treated cells.

[2] = tested on: breast carcinoma (MCF-7) cell line; assay: cells; details: Homo sapiens, MCF7, read-out: Cytotoxicity IC50
Experimental: as §1

[3] = tested on: hepatocarcinoma (HepG-2) cell line; assay: cells; details: Homo sapiens, HepG2, read-out: Cytotoxicity IC50
Experimental: as §1

IC50 (U937 human monocytes): 17.9 ± 1.6 µg/mL (≈ 60.6 µM)
SMILES: O=C(O)Cc1ccccc1Nc1c(Cl)cccc1Cl [Diclofenac]

SMILES: COc1ccc2c(c1)c(CC(=O)O)c(C)n2C(=O)c1ccc(Cl)cc1 [Indomethacin]
IC50 (red blood cells (RBCs)): 17 ± 0.72 µg/mL (≈ 47.6 µM)

SMILES: CC[C@]1(O)C[C@@H]2CN(CCc3c([nH]c4ccccc34)[C@@](C(=O)OC)(c3cc4c(cc3OC)N(C)[C@H]3[C@@](O)(C(=O)OC)[C@H](OC(C)=O)[C@]5(CC)C=CCN6CC[C@]43[C@@H]65)C2)C1 [Vinblastine]
IC50 [1]: 5.5 ± 0.4 µg/mL (≈ 6.78 µM)
IC50 [2]: 4.6 ± 0.18 µg/mL (≈ 5.67 µM)
IC50 [3]: 4.6 ± 0.17 µg/mL (≈ 5.67 µM)
